Patent US9359298B2, “Cajanine structure analogous compound, preparation method and use” (INSTITUTE OF MEDICINAL BIOTECHNOLOGY, CHINESE ACADEMY OF …, priority 2011, dated 2016)
Values after ≈ are worked out from the molar mass of the structure shown. Read-outs that look alike come from different tables or passages of the source.

Experiments:
PC12 cells [1] = test: Neuroprotective activity assay, rotenone injury to PC12 cells (MTT); assay type: cell-based; conditions: for viability at 10 µM: Rattus norvegicus, PC-12, 48 h, read-out: rotenone (surviving PC12 cells, MTT 570 nm); for protective effect on rotenone injury to PC12 cells: statement in words
Summary of the method: (§1)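 PC12 cells on poly-lysine plated 24 h, then injured 48 h by serum-free DMEM or 4 μM rotenone with 10 μM test compound present during injury. Viability read by MTT (4 h), absorbance 570 nm.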

PC12 cells [2] = test: Neuroprotective activity assay, serum-deprived injury to PC12 cells (MTT); assay type: cell-based; conditions: for viability at 10 µM: Rattus norvegicus, PC-12, 48 h, read-out: serum-deprived (surviving PC12 cells, MTT 570 nm); for protective effect on serum-deprived injury to PC12 cells: statement in words
Summary of the method: as §1

ovariectomized rats = test: Protective effect on bone osteoporosis in ovariectomized rats; assay type: in vivo; conditions: compared with raloxifene
Source text: The present invention also relates to anti-osteoporotic effect of said compounds. According to literature reports, pigeonpea stilbene-type compounds belong to phytoestrogens, the anti-osteoporosis effect of natural products has to do with their estrogen-like effects.

Coxsackie virus B6 = test: Coxsackie virus activity assay (CPE in Vero cells); assay type: cell-based; conditions: for IC50: Vero
[3] = test system: Influenza A virus (hanfang359/95); test: Determination of anti-influenza virus activity (CPE in MDCK cells); assay type: cell-based; conditions: for IC50: Influenza A virus, MDCK, 36 h; for anti-influenza virus activities compared with the lead compound cajanine: statement in words
HCV = test: Anti-hepatitis C virus (HCV) activity assay (HCV RNA in Huh7.5 cells); assay type: cell-based; conditions: for EC50: Hepatitis C virus, Huh7.5, 72 h, read-out: HCV EC50; for anti-HCV viral activity: statement in words
Experimental: Inoculate Huh7.5 cells into 96-well plates to a density of 3×10^4 cells/cm^2, culture for 24h, infect the cells with 45 IU/cell HCV supernatant, meanwhile, add drug solutions or solvent control for treatment.

HIV-1 III B virus = test: Anti-HIV activity assay (P24 antigen in MT-4 cells); assay type: cell-based; conditions: for IC50: Human immunodeficiency virus 1, MT4, 96 h, read-out: HIV IC50; for anti-HIV viral activity: statement in words
[4] = 10 μM test compound, 4 μM rotenone, 48 h, Control 100.0 ± 8.9, Model 73.2 ± 7.8
[5] = 10 μM test compound, 48 h, Control 100.0 ± 9.2, Model 69.3 ± 4.1
[6] = read-out: COX-B6 IC50, Vero cells, about 100TCID50, CPE, Reed-Muench
[7] = Huh7.5 cells, 72 h, HCV RNA by RT-PCR, Reed-Muench
[8] = MT-4 cells, HIV-1 III B 100TCID50, 96 h, P24 antigen

Row | Molecule | viability at 10 µM (PC12 cells [1]; [4]) [%] | viability at 10 µM (PC12 cells [2]; [5]) [%] | IC50 (Coxsackie virus B6; [6]) [µg/mL] | IC50 [3] [µg/mL] | EC50 (HCV; [7]) [µg/mL] | IC50 (HIV-1 III B virus; [8]) [µg/mL] | further results
1 | COc1cc(/C=C/c2ccccc2)c(C(=O)O)c(O)c1CC=C(C)C [Compound 1, 2-hydroxy-3-isopentenyl-4-methoxy-6-[(E)-styryl]benzoic acid] | 72.3 ± 5.9 | 19.3 ± 1.6 | 0.9 (≈ 2.66 µM) | 8.9 (≈ 26.3 µM) | – | – | in vivo anti-osteoporotic effect (ovariectomized rats): stronger in vivo anti-osteoporotic effect than clinical drug raloxifene; EC50 (HCV): 1.21 µg/mL (≈ 3.58 µM); anti-HCV viral activity (HCV): stronger anti-HIV, HCV viral activities; IC50 (HIV-1 III B virus): 0.27 µg/mL (≈ 0.798 µM); anti-HIV viral activity (HIV-1 III B virus): stronger anti-HIV, HCV viral activities
2 | COc1cc(/C=C/c2ccccc2)c(C(=O)O)c(OC(=O)CN)c1CC=C(C)C [Compound 24b, 2-Aminoacetoxy-3-isopentenyl-4-methoxy-6-[(E)-styryl]benzoic acid] | 88.3 ± 5.2 | 89.7 ± 5.6 | 1.24 (≈ 3.14 µM) | 4.25 (≈ 10.7 µM) | 1.68 (≈ 4.25 µM) | 2.01 (≈ 5.08 µM) | –
3 | COc1cc(/C=C/c2ccccc2)c(C(=O)O)c(OC(C)=O)c1CC=C(C)C [Compound 24h] | 87.8 ± 6.3 | 88.9 ± 5.4 | 1.21 (≈ 3.18 µM) | 0.45 (≈ 1.18 µM) | 2.39 (≈ 6.28 µM) | 1.33 (≈ 3.5 µM) | –
4 | COc1cc(/C=C/c2ccccc2)c(C(=O)O)c(OC(=O)c2cccnc2)c1CC=C(C)C [Compound 24k, 2-(pyridyl-3-formylox)-3-isopentenyl-4-methoxy-6-[(E)-styryl]benzoic acid] | 85.6 ± 2.1 | 89.6 ± 2.3 | 1.36 (≈ 3.07 µM) | 3.55 (≈ 8 µM) | 4.87 (≈ 11 µM) | 2.17 (≈ 4.89 µM) | protective effect on rotenone injury to PC12 cells (PC12 cells [1]): the strongest activities; protective effect on serum-deprived injury to PC12 cells (PC12 cells [2]): the strongest activities
5 | COc1cc(/C=C/c2ccccc2)c(C(=O)O)c(OC(=O)CN(C)C)c1CC=C(C)C [Compound 24n, 2-(N,N-dimethylacetyloxy)-3-isopentenyl-4-methoxy-6-[(E)-styryl]benzoic acid] | 79.8 ± 5.6 | 75.8 ± 3.2 | 1.35 (≈ 3.19 µM) | 7.21 (≈ 17 µM) | 1.97 (≈ 4.65 µM) | 3.12 (≈ 7.37 µM) | –
6 | COc1cc(/C=C/c2ccccc2)c(C(=O)O)c(OC(=O)c2cnc[nH]2)c1CC=C(C)C [Compound 24q] | 90.5 ± 5.6 | 92.3 ± 1.2 | 1.35 (≈ 3.12 µM) | 1.98 (≈ 4.58 µM) | 1.54 (≈ 3.56 µM) | 2.85 (≈ 6.59 µM) | protective effect on rotenone injury to PC12 cells (PC12 cells [1]): the strongest activities; protective effect on serum-deprived injury to PC12 cells (PC12 cells [2]): the strongest activities
7 | COc1cc(/C=C/c2ccccc2)c(C(=O)O)c(OCN)c1CC=C(C)C [Compound 26b, 2-aminomethoxy-3-isopentenyl-4-methoxy-6-[(E)-styryl]benzoic acid] | 89.7 ± 6.3 | 88.2 ± 4.1 | 3.54 (≈ 9.63 µM) | 3.65 (≈ 9.93 µM) | 5.66 (≈ 15.4 µM) | 7.83 (≈ 21.3 µM) | –
8 | COc1cc(/C=C/c2ccccc2)c(C(=O)O)c(OCC2CNCCN2)c1CC=C(C)C (stereo not drawn) [Compound 26e, 2-(piperazin-2-yl)methoxy-3-isopentenyl-4-methoxy-6-[(E)-styryl]benzoic acid] | 87.6 ± 5.6 | 85.6 ± 2.9 | 1.32 (≈ 3.02 µM) | 2.31 (≈ 5.29 µM) | 2.28 (≈ 5.22 µM) | 2.77 (≈ 6.35 µM) | –
9 | COc1cc(/C=C/c2ccccc2)c(C(=O)O)c(OC(=N)N)c1CC=C(C)C [Compound 27b, 2-iso-ureido-3-isopentenyl-4-methoxy-6-[(E)-styryl]benzoic acid] | 92.3 ± 2.6 | 91.5 ± 6.1 | 1.24 (≈ 3.26 µM) | 2.14 (≈ 5.63 µM) | 1.83 (≈ 4.81 µM) | 4.91 (≈ 12.9 µM) | protective effect on rotenone injury to PC12 cells (PC12 cells [1]): the strongest activities; protective effect on serum-deprived injury to PC12 cells (PC12 cells [2]): the strongest activities
10 | COc1cc(/C=C/c2ccccc2)c(C(=O)O)c(OC(=O)NN)c1CC=C(C)C [Compound 29b, 2-Hydrazinoformyloxy-3-isopentenyl-4-methoxy-6-[(E)-styryl]benzoic acid] | – | – | – | 1.21 (≈ 3.05 µM) | – | – | viability at 10 µM (PC12 cells [1]): 78.9 ± 5.6%; viability at 10 µM (PC12 cells [2]): 74.5 ± 4.6%; IC50 (Coxsackie virus B6; read-out: COX-B6 IC50): 0.67 µg/mL (≈ 1.69 µM); EC50 (HCV): 1.36 µg/mL (≈ 3.43 µM); IC50 (HIV-1 III B virus): 1.88 µg/mL (≈ 4.74 µM)
11 | COc1cc(/C=C/c2ccccc2)c(C(=O)O)c(OC(=O)C(=O)O)c1CC=C(C)C [Compound 31b, 2-carboxyformyloxy-3-isopentenyl-4-methoxy-6-[(E)-styryl]benzoic acid] | 80.5 ± 6.4 | 88.6 ± 2.6 | 1.21 (≈ 2.95 µM) | 0.54 (≈ 1.32 µM) | 0.99 (≈ 2.41 µM) | 2.8 (≈ 6.82 µM) | anti-influenza virus activities compared with the lead compound cajanine [3]: significantly stronger than the lead compound cajanine; anti-HCV viral activity (HCV): stronger anti-HIV, HCV viral activities; anti-HIV viral activity (HIV-1 III B virus): stronger anti-HIV, HCV viral activities
12 | COc1cc(/C=C/c2ccccc2)c(C(N)=O)c(O)c1CC=C(C)C [Compound 32, 2-hydroxy-3-isopentenyl-4-methoxy-6-[(E)-styryl]benzamide] | 92.3 ± 1.2 | 94.5 ± 2.3 | 0.54 (≈ 1.6 µM) | 0.21 (≈ 0.622 µM) | 1.37 (≈ 4.06 µM) | 0.16 (≈ 0.474 µM) | protective effect on rotenone injury to PC12 cells (PC12 cells [1]): the strongest activities; protective effect on serum-deprived injury to PC12 cells (PC12 cells [2]): the strongest activities; anti-influenza virus activities compared with the lead compound cajanine [3]: significantly stronger than the lead compound cajanine
13 | CC(C)=CCc1c(O)cc(/C=C/c2ccccc2)c(C(=O)O)c1O [Compound 33, 2,4-dihydroxy-3-isopentenyl-6-[(E)-styryl]benzoic acid] | – | – | – | – | – | – | rotenone (surviving PC12 cells, MTT 570 nm) (PC12 cells [1]; [4]): 75.6 ± 2.1; serum-deprived (surviving PC12 cells, MTT 570 nm) (PC12 cells [2]; [5]): 16.8 ± 0.4; COX-B6 IC50 (Coxsackie virus B6; Vero cells, about 100TCID50, CPE, Reed-Muench): 2.31 µg/mL; Influenza A virus (hanfang359/95) IC50 [3]: 2.35 µg/mL; HCV EC50 (HCV; [7]): 1.55 µg/mL; HIV IC50 (HIV-1 III B virus; [8]): 2.01 µg/mL
14 | COC(=O)c1c(CCc2ccccc2)cc(OC)c(CC=C(C)C)c1O [Compound 36, methyl 2-hydroxy-3-isopentenyl-4-methoxy-6-phenethyl benzoate] | 72.2 ± 12.2 | 41 ± 15.4 | > 2.46 | > 2.46 | 3.86 (≈ 10.9 µM) | 1.06 (≈ 2.99 µM) | –
15 | COc1cc(CCc2ccccc2)c(C(=O)O)c(O)c1CC=C(C)C [Compound 37, 2-hydroxy-3-isopentenyl-4-methoxy-6-phenethyl benzoic acid] | 60.4 ± 7.8 | 29 ± 11.2 | > 2.05 | > 22.2 | 12.2 (≈ 35.8 µM) | 2.09 (≈ 6.14 µM) | –
16 | methyl 2-hydroxy-3-isopentenyl-4-methoxy-6-(4′-methyl-cyclohexylenemethyl)benzoate [Compound 8n] | – | – | – | – | – | – | rotenone (surviving PC12 cells, MTT 570 nm) (PC12 cells [1]; [4]): 78.0 ± 9.2; serum-deprived (surviving PC12 cells, MTT 570 nm) (PC12 cells [2]; [5]): 53.7 ± 3.8; COX-B6 IC50 (Coxsackie virus B6): >6.17 µg/mL; Influenza A virus (hanfang359/95) IC50 [3]: >2.06 µg/mL; HCV EC50 (HCV; [7]): 1.06 µg/mL; HIV IC50 (HIV-1 III B virus; [8]): 2.17 µg/mL
